Source: the METLIN SMRT retention time set (Domingo-Almenara et al. 2019)

Assay: gradient 5% acetonitrile 3 min, to 50% in 2 min, to 85% in 15 min, held 3 min, 100 µL/min
Conditions: column: Zorbax Extend-C18 2.1 x 50 mm; eluents: water / acetonitrile, 0.1% formic acid
Method in brief: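 Pure standards were analyzed in mixtures of ~100 molecules using HPLC coupled to a quadrupole time-of-flight mass spectrometer, in both positive and negative ionization mode. Separation used a Zorbax Extend-C18 column (2.1 × 50 mm, 1.8 μm) at 100 μL/min, with water and acetonitrile each containing 0.1% formic acid. Dead and dwell volumes were 40 μL and 900 μL, and data were collected over 3 months. Retention time was read from computationally picked adduct peaks, each inspected manually.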

Row | SMILES | RP-LC retention time [s]
1 | CC(C)C(=O)N1CCc2cc(-c3ccc(C(=O)NCCN4CCN(C)CC4)cc3)ccc21 | 608
2 | CCc1cc(=O)n(CC(=O)NCc2cccc(OC)c2)c(N)n1 | 584
3 | COc1ccc(-c2cc3c(=O)n(Cc4nc(-c5cccc(OC)c5OC)oc4C)ccn3n2)cc1 | 990
4 | Cc1ccc(CNC(=O)C2(C)CN(S(C)(=O)=O)CC(=O)N2c2cc(C)cc(C)c2)cc1 (configuration not stated) | 860
5 | Cc1nc(OCC(=O)N2CCc3ccccc32)c2c(-c3ccccc3)noc2n1 | 1100
6 | CCn1ccc2oc(C)c(C(=O)NCc3cccc(Br)c3)c2c1=O | 1060
7 | CC(C)NCCCn1c(Sc2cc3c(cc2I)OCO3)nc2c(N)ncnc21 | 592
8 | Cn1ncn2cc(S(=O)(=O)NCc3ccccc3Cl)cc2c1=O | 792
9 | COCCn1nc2n(c1=O)CCN(C(=O)c1ccco1)CC2 | 585
10 | Cc1oc(-c2ccccc2)nc1CN1C(=O)C(O)(c2cccc(F)c2)c2ccccc21 (configuration not stated) | 1100
11 | Cc1cccc(CNc2nnc(-c3nnc(C)o3)c3ccccc23)c1 | 831
12 | CC(NC(=O)C1CCCN(C(=O)c2cc3sccc3n2C)C1)c1ccc2c(c1)OCCO2 (configuration not stated) | 838
13 | Cc1cc(C)c(C#N)c(SCC(=O)Nc2nccs2)n1 | 750
14 | COc1ccc(-c2nsc(SCC(=O)N3CCCc4ccccc43)n2)cc1 | 1110
15 | Cc1ccccc1-c1noc(CN2N=NC3C(=O)N(c4cccc(Cl)c4)C(=O)C32)n1 (configuration not stated) | 996
16 | C=CCn1c(C)c(CC(=O)Nc2ccc(F)c(F)c2)c(=O)n2nc(-c3ccc(C)cc3)nc12 | 838
17 | Cc1nnc(N2CCCC(C(=O)NCCc3cccs3)C2)c2nn(-c3ccc(Cl)cc3)c(C)c12 (configuration not stated) | 762
18 | CC(C)C(NC(=O)c1cccc(C#N)c1)C(=O)N1CCN(c2ccccn2)CC1 (configuration not stated) | 620
19 | COCCN1C(=O)[C@H]2CN(Cc3cccc(C(F)(F)F)c3)C[C@H]2C1=O | 694
20 | CC(=O)Nc1cccc(C2=NN(C(C)=O)C(c3cccs3)C2)c1 (configuration not stated) | 685
21 | COc1ccc(Cl)cc1NC(=O)C1CC(=O)N(c2cccc(NC(C)=O)c2)C1 (configuration not stated) | 740
22 | COc1cccc(-c2ccc(=O)n(Cc3nc(-c4ccccc4)no3)n2)c1 | 968

Row | SMILES | RP-LC retention time [s]
23 | O=C(Cc1ccsc1)N1CCC(n2c(-c3ccco3)nc3cccnc32)C1 (configuration not stated) | 689
24 | COc1cc(-c2noc(Cn3ccn(-c4ccccc4)c(=O)c3=O)n2)cc(OC)c1OC | 749
25 | CCOC(=O)c1c(S(=O)(=O)N2CCC(C(=O)NCc3ccc(C)o3)CC2)c(C)n(C)c1C | 764
26 | Cc1ccc(OCC(=O)Nc2cc3c(cc2N(C)C)n(C)c(=O)c(=O)n3C)c(C)c1 | 962
27 | Cc1ccc(OCC(=O)Nc2cc3c(cc2N2CCCC2)n(C)c(=O)c(=O)n3C)c(C)c1 | 1000
28 | O=C(Nc1ccc(S(=O)(=O)N2CCCCC2)cc1)c1cc(-c2ccccc2)on1 | 598
29 | Cc1ccccc1CN1C[C@@H]2C(=O)N(C)C(=O)[C@@H]2C1 | 585
30 | O=C(CCC[C@@H]1[C@H]2CCCN3CCC[C@@H](CN1C(=O)c1cccnc1)[C@@H]23)N1CCN(c2ncccn2)CC1 | 578
31 | Cc1noc2nc(CCC(=O)NC(C)c3ccccc3)nc(N3CCC(C)CC3)c12 (configuration not stated) | 941
32 | COCCn1cc(CCNC(=O)Nc2cccc(C)c2)c2cccnc21 | 728
33 | COC(=O)Cn1c(=O)oc2cc(S(=O)(=O)N3CCN(c4ccccn4)CC3)ccc21 | 624
34 | Cc1ccc(C)c(C(O)Cn2ccn3nc(-c4cccc(Br)c4)cc3c2=O)c1 (configuration not stated) | 1160
35 | COc1ccc(C2(c3nc(-c4ccc(CNC(=O)C5CC5)s4)no3)CC2)cc1 | 955
36 | CCn1ccc(C(=O)N2CCCC2c2nc(-c3ccc(F)cc3F)no2)n1 (configuration not stated) | 827
37 | O=C(O)CNC(=O)c1c(O)c2ccccc2n(Cc2ccccc2)c1=O | 989
38 | Cc1noc(-c2ccc(OC3CN(S(=O)(=O)c4cn(C)cn4)C3)cc2)n1 | 796
39 | COc1ccc(C2CC(=O)N(c3ccc(C)cc3C)C(=O)C2)cc1 | 941
40 | COc1cccc(CCC(=O)N2CCc3nc[nH]c3C2)c1 | 575
41 | CC1CC(=O)c2cnc(N3CCN(c4ccccn4)CC3)nc2C1 (configuration not stated) | 611
42 | CC1(C)Cc2cccc(OCC(=O)NCC3CN(c4ccccc4)C(=O)O3)c2O1 (configuration not stated) | 796
43 | Cc1ccn2cc(C(=O)NCCCN3CCCC3=O)nc2c1 | 535
44 | O=C(c1nnn(Cc2ccc(Cl)cc2)c1-n1cccc1)N1CCCC1 | 915

Row | SMILES | RP-LC retention time [s]
45 | Cc1cccc(CNS(=O)(=O)c2ccc3c(c2)C(=O)N(C)c2ncccc2O3)c1 | 886
46 | CCCN1C(=O)c2cc(C(=O)N3CCN(C4CCCCC4)CC3)nn2CC1(C)C(=O)NC1CCCC1 (configuration not stated) | 660
47 | CC(NC(=O)c1cc2n(n1)CC(C)(C(=O)NC1CCCCC1)N(C)C2=O)c1ccccc1 (configuration not stated) | 800
48 | COC(=O)c1cc(OCc2cccc(OC)c2)c2cc(OC)ccc2n1 | 901
49 | Cc1ccc(-c2cc3c4nn(CC(=O)NC5CCCC5)c(=O)n4ccn3n2)cc1C | 918
50 | Cc1nn(Cc2nc(-c3ccc(NC(=O)c4cccs4)cc3)oc2C)c(C)c1C | 922
51 | COc1ccc(-c2noc(C3CC(=O)N(c4ccc(Cl)cc4)C3)n2)cc1OC (configuration not stated) | 950
52 | COC(=O)C1=CN(CC(=O)NCc2ccc(Cl)cc2)S(=O)(=O)N=C1C | 850
53 | Cc1ccc2nc(-c3c(F)cccc3Cl)c(Nc3ccccc3C)n2c1 | 777
54 | Cn1cc(CN2CCC(C(=O)NCCC3=CCCCC3)CC2)c2cc(Cl)ccc21 | 778
55 | CC(C)Cn1cc(CCNC(=O)Nc2ccc(Br)cc2)c2cccnc21 | 932
56 | CCN(CC)c1nc2ccsc2c(=O)n1CC(=O)NCc1ccc(Cl)cc1 | 908
57 | COc1ccc(OC)c(NC(=O)N2CC=C(c3cn(C)c4ncccc34)CC2)c1 | 882
58 | Cc1ccc(NC(=O)CN2C(=O)NC3(CCCCC3)C2=O)cc1C | 792
59 | CN1C(=O)c2cc(C(=O)N3CCCC3)nn2CC1(C)C(=O)NCc1ccc(F)cc1 (configuration not stated) | 626
60 | CNC(=O)C1CCCN(c2nc3ncn(CC(=O)Nc4ccc5c(c4)OCCO5)c(=O)c3s2)C1 (configuration not stated) | 627
61 | COc1ccc(-c2noc(C3CCCN3C(=O)c3ccc(OC)nc3)n2)cc1 (configuration not stated) | 879
62 | c1cn(-c2cc(N3CCSCC3)ncn2)cn1 | 591
63 | CN(C)c1ccc2c(c1)CN(C(=O)Cn1c(=O)oc3ccccc31)CCO2 | 621
64 | CCCCOc1ccc(NC(=O)NCCN2CCN(S(C)(=O)=O)CC2)cc1 | 600
65 | CC(=O)c1ccc(NC(=O)CCSc2ccc(F)cc2)cc1 | 835
66 | O=C(Cn1nc2c3sc(N4CCCCC4)nc3ncn2c1=O)Nc1ccc(F)cc1Cl | 844

Row | SMILES | RP-LC retention time [s]
67 | Cc1ccc(CNC(=O)C2CCN(S(C)(=O)=O)c3cc(C)ccc3O2)cc1 (configuration not stated) | 912
68 | COc1ccc(C2C(C(=O)OC(C)C)=C(C)NC3=C2C(=O)CCC3)c(OC)c1OC (configuration not stated) | 778
69 | CCN(CC)c1nc2cc(C(=O)OC)ccc2c(=O)n1-c1ccc(C)c(C)c1 | 1270
70 | COc1ccc(-c2[nH]ncc2CN2CC(F)(F)C[C@H]2CN2CCOCC2)cc1 | 590
71 | Cc1ccccc1NC(=O)Cn1nc(N2CCOCC2)c2ccccc2c1=O | 774
72 | COCCC(=O)Nc1ccc2c(c1)Sc1ncccc1C(=O)N2C | 612
73 | Cc1cccc(S(=O)(=O)N2CCCN(c3ccc(=O)n(-c4ccc(F)cc4)n3)CC2)c1 | 865
74 | COc1ccc(-c2nc(-c3ccc4c(c3)ncn4CCN3CCCCC3)no2)cc1 | 658
75 | COc1ccc(NC(=O)c2cc3c(s2)CN(C2CCCC2)C3)c(C)c1 | 614
76 | COc1ccc(-c2nnc(COc3ccc(NC(=O)CSc4ccncc4)cc3)o2)cc1 | 650
77 | O=C(C1=NN(Cc2ccccc2)c2ccccc2S1(=O)=O)N1CCCCCC1 | 974
78 | Cc1cc2ncn(S(=O)(=O)N3CCCC3)c2cc1C | 837
79 | Cc1nn(C)c2nc(OC(C)C(=O)NCCc3ccccc3)cc(C(F)(F)F)c12 (configuration not stated) | 972
80 | CC(C)Cc1noc(C2(F)CCN(S(=O)(=O)c3ccc(C(C)(C)C)cc3)CC2)n1 | 601
81 | COc1ccc(NC(=O)N2CCCC2c2nc(-c3ccccc3OC)no2)cc1OC (configuration not stated) | 941
82 | CC(Oc1ccccc1F)C(=O)Nc1ccc(-c2nc(-c3ccccc3)no2)cc1 (configuration not stated) | 1260
83 | CN1c2cc(F)ccc2C(=O)NC12CCN(C(=O)NCc1ccccc1)CC2 | 724
84 | N#Cc1cccc(NC(=O)C2CCCN(S(=O)(=O)c3cc(-c4noc(C5CCC5)n4)cs3)C2)c1 (configuration not stated) | 1120
85 | Cc1ccn2cc(-c3ccc(NC(=O)C(C)Oc4ccccc4)cc3)nc2n1 (configuration not stated) | 672
86 | CCc1cccc(NS(=O)(=O)c2cc3n(c2)CCN(CCOC)C3=O)c1 | 750
87 | c1ccc2c(Oc3nc(Nc4ccc(N5CCOCC5)cc4)c4ncn(C5CCCCC5)c4n3)cccc2c1 | 1180
